Assay results reported in patent publication US20250163029A1, “PYRIDONE OR PYRIMIDONE DERIVATIVE AND APPLICATION THEREOF” (Medshine Discovery Inc., priority 2022, published 2025).
Structures can show the parent of a compound that is named as a salt. Where two headings read alike, the source gives them in different places.

Experiments:
plasma protein [1] = experiment: Plasma protein binding rate (PPB), CD-1 mice; format: in vitro ADME; details: 2 μM, 4 hours dialysis
Experimental: (§1) 597 μL of blank plasma from CD-1 mice, SD rats, beagle dogs, cynomolgus monkeys and humans were weighed, and the working solution of the assay compound or the working solution of warfarin was added, so that the final concentration of the assay compound and warfarin in the plasma sample was 2 μM. The samples were mixed thoroughly. The final concentration of DMSO as an organic phase was 0.5%; 50 μL of the assay compound and warfarin plasma samples were pipetted into a sample receiving plate, and the corresponding volume of blank plasma or buffer was immediately added, so that the final volume of each sample well was 100 μL, and the volume ratio of plasma:dialysis buffer was 1:1, and then the stop solution was added to these samples. The samples were used as the To sample for recovery and stability determination. The assay compound and warfarin plasma samples were added to the dosing end of each dialysis well, and blank dialysis buffer was added to the receiving end corresponding to the dialysis well. Then the dialysis plate was sealed with a gas permeable membrane and placed in a humidified 5% CO2 incubator, and incubated with shaking at 37° C. and 100 rpm for 4 hours. […] After protein precipitation, all samples were analyzed by LC/MS/MS, and the free rate (% Unbound) of the compound was calculated by the following formula: […]

plasma protein [2] = experiment: Plasma protein binding rate (PPB), humans; format: in vitro ADME; details: Human plasma, 2 μM, 4 hours dialysis
Experimental: as §1

[3] = Pharmacokinetic (PK) assay in mice; format: in vivo, C57BL6/J strain mice; details: C57BL6/J, plasma; for AUC: mouse
Experimental: Objective of assay: The druggability of compounds was evaluated by measuring their pharmacokinetic properties in different animal species.
Assay Materials: C57BL6/J strain mice, Sprague-Dawley strain rats and beagle dogs.
The pharmacokinetic characteristics of the compound after intravenous and oral administration were assayed in animals using a standard protocol. In the assay, the candidate compound was prepared into a clear solution (intravenous injection) or a homogeneous suspension (oral administration) and administrated to the animal once. Whole blood samples were collected within 24 hours, and centrifuged at 3200 g for 10 minutes. The supernatant was separated to obtain a plasma sample. The blood concentration was quantitatively analyzed by LC-MS/MS analysis method, and pharmacokinetic parameters such as peak concentration, time to peak, clearance rate, half-life, and area under the drug-time curve were calculated.

[4] = test system: novel coronavirus βCoV/KOR/KCDC03/2020 strain; experiment: In vitro anti-novel coronavirus activity in Vero cells; format: cell-based, SARS-CoV-2; details: Severe acute respiratory syndrome coronavirus 2, Vero, 24 h
plasma protein [5] = experiment: Plasma protein binding rate (PPB), SD rats; format: in vitro ADME; details: 2 μM, 4 hours dialysis
Experimental: as §1

SMILES: Cn1cnc(Cc2cn(Cc3cc(F)c(F)cc3F)c(Nc3cc4cn(C)nc4cc3Cl)nc2=O)n1 [Compound 4 hydrochloride]
- PPB_Unbound (%) (plasma protein [1]): 2.8%
- PPB_Unbound (%) (plasma protein [2]): 24.3%
- AUC ([3]; iv, 1 mg/kg, IV, 1 mpk, read-out: AUC): 32.8 µM·h
- AUC ([3]; iv, 1 mg/kg, IV, 1 mpk, read-out: AUCfree): 0.92 µM·h
- AUC ([3]; po, 5 mg/kg, PO, 5 mpk, read-out: AUC): 145 µM·h
- AUC ([3]; po, 5 mg/kg, PO, 5 mpk, read-out: AUCfree): 4.1 µM·h
- Vd ([3]; 1 mg/kg, Mouse, IV, 1 mpk): 0.23 L/kg
- clearance ([3]; 1 mg/kg, Mouse, IV, 1 mpk): 0.98 mL/min/kg
- half-life ([3]; 1 mg/kg, Mouse, IV, 1 mpk): 2.6 h
- Cmax ([3]; 5 mg/kg, Mouse, PO, 5 mpk): 31 µM
- Tmax ([3]; 5 mg/kg, Mouse, PO, 5 mpk): 0.75 h
- bioavailability ([3]; 5 mg/kg, Mouse, PO, 5 mpk): 88%
- half-life ([3]; 5 mg/kg, Mouse, PO, 5 mpk): 2.7 h
- EC50 [4]: 52 nM
- PPB_Unbound (%) (plasma protein [5]): 4.5%
